Results reported in PubChem BioAssay (NCI).
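Compound exposure: 48 hours, 5 concentrations, 96-well plates. Definition used: TGI = concentration required for complete inhibition of growth.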

Columns and labels:
Assay in all cases: inhibition of tumour cell growth, NCI panel, 48 h
COLO 205 colon = system: COLO 205 colon
OVCAR-4 ovarian = system: OVCAR-4 ovarian
SNB-19 CNS = system: SNB-19 CNS
HOP-62 NSCLC = system: HOP-62 NSCLC
UACC-62 melanoma = system: UACC-62 melanoma
SNB-78 CNS = system: SNB-78 CNS
SNB-75 CNS = system: SNB-75 CNS
OVCAR-8 ovarian = system: OVCAR-8 ovarian
DMS 114 small cell lung = system: DMS 114 small cell lung
HCC-2998 colon = system: HCC-2998 colon
UO-31 renal = system: UO-31 renal
SF-295 CNS = system: SF-295 CNS
NCI-H460 lung = system: NCI-H460 lung
RXF 393 renal = system: RXF 393 renal
SF-268 CNS = system: SF-268 CNS
DMS 273 small cell lung = system: DMS 273 small cell lung
SR leukemia = system: SR leukemia
U251 CNS = system: U251 CNS
K-562 leukemia = system: K-562 leukemia
SW-620 colon = system: SW-620 colon
HCT-15 colon = system: HCT-15 colon
XF 498 CNS = system: XF 498 CNS
A549 NSCLC = system: A549 NSCLC
KM12 colon = system: KM12 colon
M14 melanoma = system: M14 melanoma
SK-MEL-2 melanoma = system: SK-MEL-2 melanoma
HCT-116 colon = system: HCT-116 colon
SK-OV-3 ovarian = system: SK-OV-3 ovarian
OVCAR-3 ovarian = system: OVCAR-3 ovarian
KM20L2 colon = system: KM20L2 colon
M19-MEL melanoma = system: M19-MEL melanoma
EKVX NSCLC = system: EKVX NSCLC
LXFL 529 NSCLC = system: LXFL 529 NSCLC
TK-10 renal = system: TK-10 renal
HOP-92 NSCLC = system: HOP-92 NSCLC
DLD-1 colon = system: DLD-1 colon
A498 renal = system: A498 renal
CCRF-CEM leukemia = system: CCRF-CEM leukemia
SF-539 CNS = system: SF-539 CNS
HL-60(TB) leukemia = system: HL-60(TB) leukemia
NCI-H522 lung = system: NCI-H522 lung
UACC-257 melanoma = system: UACC-257 melanoma
HT29 colon = system: HT29 colon
NCI-H23 lung = system: NCI-H23 lung
786-0 renal = system: 786-0 renal
ACHN renal = system: ACHN renal
LOX IMVI melanoma = system: LOX IMVI melanoma
IGROV1 ovarian = system: IGROV1 ovarian
MOLT-4 leukemia = system: MOLT-4 leukemia
NCI-H226 lung = system: NCI-H226 lung
SK-MEL-28 melanoma = system: SK-MEL-28 melanoma
HOP-18 NSCLC = system: HOP-18 NSCLC
RPMI-8226 leukemia = system: RPMI-8226 leukemia
MALME-3M melanoma = system: MALME-3M melanoma
SN12C renal = system: SN12C renal

Measured: TGI

CCN(CC)C(=O)c1c(Cl)cc(N(CC)CC)oc1=O
> 100 µM: all assays above

C=C1CC[C@@H]2C(C)(C)C(O)CCC2(C)C1COc1ccc2ccc(=O)oc2c1 (stereo not given in full)
39.8 µM: MOLT-4 leukemia
42.4 µM: SW-620 colon
35.5 µM: RXF 393 renal
31.3 µM: SF-539 CNS
35 µM: HOP-18 NSCLC
33.3 µM: NCI-H226 lung
36.3 µM: HL-60(TB) leukemia
32.5 µM: M19-MEL melanoma
37.4 µM: SNB-19 CNS | EKVX NSCLC
44.1 µM: K-562 leukemia
27.3 µM: DMS 273 small cell lung
34.3 µM: U251 CNS
28.1 µM: COLO 205 colon
32 µM: SK-MEL-2 melanoma | LOX IMVI melanoma
29.8 µM: KM12 colon | NCI-H522 lung
36.9 µM: TK-10 renal
34.4 µM: DLD-1 colon
37.3 µM: HT29 colon
30.5 µM: ACHN renal
56.9 µM: SR leukemia
23.7 µM: LXFL 529 NSCLC
30 µM: SN12C renal
56.8 µM: A498 renal
32.2 µM: SNB-75 CNS | SK-MEL-28 melanoma
33.8 µM: RPMI-8226 leukemia
33.4 µM: HOP-62 NSCLC
55.2 µM: SK-OV-3 ovarian
28.3 µM: HCT-15 colon
23.5 µM: NCI-H460 lung
49 µM: CCRF-CEM leukemia
39.2 µM: SNB-78 CNS
29.4 µM: UACC-62 melanoma | UO-31 renal
28.2 µM: DMS 114 small cell lung
29.7 µM: OVCAR-4 ovarian | SF-295 CNS
29.6 µM: XF 498 CNS
35.4 µM: HOP-92 NSCLC
42.2 µM: 786-0 renal
32.1 µM: MALME-3M melanoma
33.5 µM: OVCAR-8 ovarian | IGROV1 ovarian
34.6 µM: NCI-H23 lung
33.2 µM: M14 melanoma
40.5 µM: KM20L2 colon
36.7 µM: SF-268 CNS
34.8 µM: HCC-2998 colon
28.8 µM: HCT-116 colon
32.6 µM: all other assays above

COc1nc(NC2OCC(O)C(O)C2O)c(NC2OCC(O)C(O)C2O)c(=O)n1C (stereo not given)
> 100 µM: all assays above
